PMC11979685, “Synthesis of Derivatives of the Antibiotic Albicidin: The N‐Terminal Fragment as Key to Control Potency and Resistance Mediated by the Binding Protein AlbA” (Chemistry (Weinheim an Der Bergstrasse, Germany), 2025)
≈ marks a conversion by molar mass, not a printed value. Like-named read-outs stand apart in the source and are kept apart here.

What was measured:
Bacillus subtilis DSM 10 = assay: MIC determination (broth microdilution); assay type: cell-based; conditions: DSM10, read-out: MIC B. sub.
Description: (§1) After completing the syntheses, the antibacterial activity of A‐variations 4–24 was assessed by determination of MIC values against a basic set of gram‐negative and gram‐positive bacteria (Table 1). The monocyclic derivatives 4–8 featuring a cyano‐, trifluoromethyl‐, methoxy‐ and fluoro‐ substituent in para‐position were very active against the gram–negative E. coli and S. typhimurium strains with MIC values in the same range as 3rd Gen albicidin 3 or ciprofloxacin which is the gold standard for gyrase inhibitors. […] These findings are in agreement with previous studies showing good activities for cyano, trifluoromethyl, methoxy and fluoro substituents in the para‐position of different aromatic rings in the building block A.[12, 13] The activity of the monocyclic derivatives 4–8 against the gram‐positive strains B. subtilis and M. luteus were similar but slightly less pronounced compared to the lead structure 3.
(§2) 1.1 Determination of Minimal Inhibitory Concentrations (MIC)
(§3) Minimal inhibitory concentration (MIC) against selected bacterial strains values were determined according to the ninth edition of the Approved Standard M07-A9.[1] 20 μL of cryo stocks of bacterial strains were suspended in 20 mL LB medium (Lysogeny broth: 10 g/L peptone, 5 g/L yeast extract, 5 g/L NaCl). Following incubation overnight at 37°C, 200 rpm, the test inoculum was adjusted by 0.5 McFarland Standard in cation adjusted Mueller-Hinton broth (BBLTM Mueller-Hinton Broth II, Becton, Dickinson and Company, New Jersey, USA) to approximately 1x10^6 CFU mL-1. 95 μL of the bacterial inoculum were applied per well of a 96-well plate. Albicidin and albicidin derivatives 3−24 were dissolved in DMSO (100%) to an initial concentration of 2560 μg/mL and serially diluted in DMSO (100%). Initial solution and serial dilutions of Ciprofloxacin were prepared in 0.1 N HCL, respectively. 5 μL of each antibiotic dilution were added to the microdilution tray to reach albicidin concentrations of 128 μg/mL to 0.016 μg/mL per well. One row of each well plate served as a growth control without antibiotic substances and another row of the microdilution tray served as sterility control (only MHB II - media). The antimicrobial effect of the solvent (DMSO) was tested by adding 5 μL DMSO to several wells. Purity check and cell titer control were performed according to International S tandard M07-A9 on Mueller-Hinton II Agar (Mueller Hinton II Broth, 15 g/L agar-agar). Both microdilution trays and agar plates were incubated at 30−37°C for 16 h and subsequently analyzed for growth inhibition by naked eye. The following primary panel of microorganisms were purchased from German Collection of Microorganisms and Cell Cultures (DSMZ):
(§4) Escherichia coli DSM 1116
(§5) Micrococcus luteus DSM 1790
(§6) Mycobacterium phlei DSM 750
(§7) Salmonella typhimurium TA100 was kindly provided by Prof. Dr. Vera Meyer (Technische Universität Berlin). […]
(§8) was purchased as part of the single gene knockout library of E. coli K12 BW25113 (Keio collection) from Horizon Discovery group plc (Cambridge, UK).

E. coli BW25113 = assay: MIC determination (broth microdilution); assay type: cell-based
Description: as §1, §2, §3, §4, §5, §6, §7, §8

E. coli DSM1116 = assay: MIC determination (broth microdilution); assay type: cell-based
Description: as §1, §2, §3, §4, §5, §6, §7, §8

[1] = system: Micrococcus luteus DSM 1790; assay: MIC determination (broth microdilution); assay type: cell-based; conditions: DSM1790, read-out: MIC M. luteus
Description: as §1, §2, §3, §4, §5, §6, §7, §8

[2] = system: Salmonella typhimurium TA100; assay: MIC determination (broth microdilution); assay type: cell-based; conditions: Salmonella enterica, read-out: MIC S. typh.
Description: as §1, §2, §3, §4, §5, §6, §7, §8

E. coli = assay: MIC against E. coli in presence of 50 % human serum; assay type: cell-based; conditions: Escherichia coli, read-out: MICEc 50%HS
[3] = Reverse-phase HPLC retention time as estimate of lipophilicity; assay type: physicochemical; conditions: indicator of lipophilicity
Source text: As mentioned before, albicidin 1 is a rather hydrophobic compound and improving its aqueous solubility is desirable. The lipophilicity of drug molecules is commonly characterized by the octanol/water partition coefficient (logP). An alternative approach relies on the correlation between lipophilicity and the retention time (Rt) on a reverse‐phase HPLC column.[31] This approach works well if structurally related compounds are compared as is the case for this SAR study. Rt was thus used to estimate the hydrophilicity of albicidin 1 and its derivatives 2–24 (Table 1).[32]

[4] = system: Mycobacterium phlei DSM 750; assay: MIC determination (broth microdilution); assay type: cell-based
Description: as §1, §2, §3, §4, §5, §6, §7, §8

[5] = Escherichia coli, BW25113; read-out: MIC E. coli BW25113
[6] = Escherichia coli, DSM1116; read-out: MIC E. coli DSM1116
[7] = E. coli in presence of 50 % human serum
[8] = Mycolicibacterium phlei, DSM750; read-out: MIC M. phlei
[9] = Escherichia coli, BW25113, read-out: MIC E. coli BW25113
[10] = Escherichia coli, DSM1116, read-out: MIC E. coli DSM1116

| Compound | MIC (Bacillus subtilis DSM 10) | MIC (E. coli BW25113; [5]) | MIC (E. coli DSM1116; [6]) | MIC [1] | MIC [2] | MIC (E. coli; [7]) | Rt (retention time) [3] | MIC [4, 8] | MIC (E. coli BW25113; [9]) | MIC (E. coli DSM1116; [10]) | MIC ([4]; Mycolicibacterium phlei, DSM750, read-out: MIC M. phlei) | MIC (E. coli) |
| --- | --- | --- | --- | --- | --- | --- | --- | --- | --- | --- | --- | --- |
| COc1c(NC(=O)c2ccc(NC(=O)c3ccc(NC(=O)[C@H](Cc4c[nH]nn4)NC(=O)c4ccc(NC(=O)[C@@H](C)Oc5ccc(O)cc5)cc4)cn3)c(OC)c2O)ccc(C(=O)O)c1O [compound 9] | 1 µg/mL (≈ 1.12 µM) | 0.063 µg/mL (≈ 0.0708 µM) | 0.063 µg/mL (≈ 0.0708 µM) | 2 µg/mL (≈ 2.25 µM) | 0.063 µg/mL (≈ 0.0708 µM) | ≥ 8 µg/mL | 7.78 min | – | – | – | – | – |
| COc1c(NC(=O)c2ccc(NC(=O)c3ccc(NC(=O)[C@H](Cc4c[nH]nn4)NC(=O)c4ccc(NC(=O)c5ccc6nc(C)ccc6c5)cc4)cn3)c(OC)c2O)ccc(C(=O)O)c1O [compound 16] | – | – | – | – | – | – | 6.94 min | – | – | – | – | – |
| CCn1cc(C(=O)Nc2ccc(C(=O)N[C@@H](Cc3c[nH]nn3)C(=O)Nc3ccc(C(=O)Nc4ccc(C(=O)Nc5ccc(C(=O)O)c(O)c5OC)c(O)c4OC)nc3)cc2)c(=O)c2ccc(C)nc21 [compound 18] | 0.063 µg/mL (≈ 0.067 µM) | 0.063 µg/mL (≈ 0.067 µM) | 0.031 µg/mL (≈ 0.033 µM) | 0.031 µg/mL (≈ 0.033 µM) | ≤ 0.016 µg/mL | 8 µg/mL | 9.24 min | ≥ 8 µg/mL | – | – | – | – |
| COc1c(NC(=O)c2ccc(NC(=O)c3ccc(NC(=O)[C@H](Cc4c[nH]nn4)NC(=O)c4ccc(NC(=O)c5ccc(C#N)cc5)cc4)cn3)c(OC)c2O)ccc(C(=O)O)c1O [compound 4] | 0.125 µg/mL (≈ 0.146 µM) | ≤ 0.016 µg/mL | 0.031 µg/mL (≈ 0.0363 µM) | 0.125 µg/mL (≈ 0.146 µM) | ≤ 0.016 µg/mL | 1 µg/mL | 8.20 min | 4 µg/mL (≈ 4.68 µM) | – | – | – | – |
| COc1c(NC(=O)c2ccc(NC(=O)c3ccc(NC(=O)[C@H](Cc4c[nH]nn4)NC(=O)c4ccc(NC(=O)c5cc(=O)c6cc(F)ccc6o5)cc4)cn3)c(OC)c2O)ccc(C(=O)O)c1O [compound 20] | 0.125 µg/mL (≈ 0.136 µM) | ≤ 0.016 µg/mL | ≤ 0.016 µg/mL | 0.063 µg/mL (≈ 0.0688 µM) | ≤ 0.016 µg/mL | 8 µg/mL | 8.60 min | 2 µg/mL (≈ 2.18 µM) | – | – | – | – |
| COc1c(NC(=O)c2ccc(NC(=O)c3ccc(NC(=O)[C@H](Cc4c[nH]nn4)NC(=O)c4ccc(NC(=O)c5ccc6nc[nH]c6c5)cc4)cn3)c(OC)c2O)ccc(C(=O)O)c1O [compound 23] | 2 µg/mL (≈ 2.3 µM) | – | – | 2 µg/mL (≈ 2.3 µM) | 0.125 µg/mL (≈ 0.144 µM) | ≥ 8 µg/mL | 6.69 min | 8 µg/mL (≈ 9.2 µM) | 0.125 µg/mL (≈ 0.144 µM) | 0.125 µg/mL (≈ 0.144 µM) | – | – |
| COc1c(NC(=O)c2ccc(NC(=O)c3ccc(NC(=O)[C@H](Cc4c[nH]nn4)NC(=O)c4ccc(NC(=O)c5c[nH]c6ccccc6c5=O)cc4)cn3)c(OC)c2O)ccc(C(=O)O)c1O [compound 17] | ≤ 0.016 µg/mL | 0.063 µg/mL (≈ 0.0702 µM) | 0.031 µg/mL (≈ 0.0346 µM) | ≤ 0.016 µg/mL | – | – | 7.98 min | 8 µg/mL (≈ 8.92 µM) | – | – | – | – |
| COc1c(NC(=O)c2ccc(NC(=O)c3ccc(NC(=O)[C@H](Cc4c[nH]nn4)NC(=O)c4ccc(NC(=O)c5ccc6ncsc6c5)cc4)cn3)c(OC)c2O)ccc(C(=O)O)c1O [compound 22] | 0.125 µg/mL (≈ 0.141 µM) | ≤ 0.016 µg/mL | ≤ 0.016 µg/mL | 0.125 µg/mL (≈ 0.141 µM) | ≤ 0.016 µg/mL | 0.5 µg/mL | 7.65 min | 2 µg/mL (≈ 2.26 µM) | – | – | – | – |
| COc1c(NC(=O)c2ccc(NC(=O)c3ccc(NC(=O)[C@H](Cc4c[nH]nn4)NC(=O)c4ccc(NC(=O)c5ccc6ncccc6c5)cc4)cn3)c(OC)c2O)ccc(C(=O)O)c1O [compound 14] | 0.25 µg/mL (≈ 0.284 µM) | ≤ 0.016 µg/mL | 0.016 µg/mL (≈ 0.0182 µM) | 0.125 µg/mL (≈ 0.142 µM) | ≤ 0.016 µg/mL | 4 µg/mL | 7.67 min | 4 µg/mL (≈ 4.54 µM) | – | – | – | – |
| COc1c(NC(=O)c2ccc(NC(=O)c3ccc(NC(=O)[C@H](Cc4c[nH]nn4)NC(=O)c4ccc(NC(=O)c5ccc6nn[nH]c6c5)cc4)cn3)c(OC)c2O)ccc(C(=O)O)c1O [compound 24] | 0.5 µg/mL (≈ 0.574 µM) | 0.125 µg/mL (≈ 0.144 µM) | 0.125 µg/mL (≈ 0.144 µM) | 0.5 µg/mL (≈ 0.574 µM) | 0.031 µg/mL (≈ 0.0356 µM) | 2 µg/mL | 7.16 min | 8 µg/mL (≈ 9.19 µM) | – | – | – | – |
| CCn1cc(C(=O)Nc2ccc(C(=O)N[C@@H](Cc3c[nH]nn3)C(=O)Nc3ccc(C(=O)Nc4ccc(C(=O)Nc5ccc(C(=O)O)c(O)c5OC)c(O)c4OC)nc3)cc2)c(=O)c2cc3c(cc21)OCO3 [compound 19] | 0.031 µg/mL (≈ 0.032 µM) | ≤ 0.016 µg/mL | 0.016 µg/mL (≈ 0.0165 µM) | 0.016 µg/mL (≈ 0.0165 µM) | – | – | 8.45 min | 0.25 µg/mL (≈ 0.258 µM) | – | – | – | – |
| COc1c(NC(=O)c2ccc(NC(=O)c3ccc(NC(=O)[C@H](Cc4c[nH]nn4)NC(=O)c4ccc(NC(=O)c5cc6cc(O)ccc6[nH]5)cc4)cn3)c(OC)c2O)ccc(C(=O)O)c1O [compound 21] | 1 µg/mL (≈ 1.13 µM) | – | 0.063 µg/mL (≈ 0.0712 µM) | 1 µg/mL (≈ 1.13 µM) | 0.125 µg/mL (≈ 0.141 µM) | ≥ 8 µg/mL | 7.50 min | 4 µg/mL (≈ 4.52 µM) | 0.125 µg/mL (≈ 0.141 µM) | – | – | – |
| COc1c(NC(=O)c2ccc(NC(=O)c3ccc(NC(=O)[C@H](Cc4c[nH]nn4)NC(=O)c4ccc(NC(=O)c5cnc6ccccc6c5)cc4)cn3)c(OC)c2O)ccc(C(=O)O)c1O [compound 13] | 0.125 µg/mL (≈ 0.142 µM) | ≤ 0.016 µg/mL | 0.031 µg/mL (≈ 0.0352 µM) | 0.125 µg/mL (≈ 0.142 µM) | – | – | 8.07 min | 1 µg/mL (≈ 1.14 µM) | – | – | – | – |
| COc1c(NC(=O)c2ccc(NC(=O)c3ccc(NC(=O)[C@H](Cc4c[nH]nn4)NC(=O)c4ccc(NC(=O)c5cc6ccccc6cn5)cc4)cn3)c(OC)c2O)ccc(C(=O)O)c1O [compound 12] | 0.063 µg/mL (≈ 0.0715 µM) | – | – | 0.063 µg/mL (≈ 0.0715 µM) | ≤ 0.016 µg/mL | – | 8.74 min | – | ≤ 0.016 µg/mL | ≤ 0.016 µg/mL | 1 µg/mL (≈ 1.14 µM) | 1 µg/mL |
